Reference: patent US20250281462A1, “THERAPEUTICALLY EFFECTIVE ORAL ADMINISTRATION OF A 2 ARYLBENZIMIDAZOLE” (Tranquis Therapeutics, Inc., priority 2021, published 2025)

How the values were obtained:
older mice = settings: oral 25 mg/kg; cited from earlier work
[1] = Phase 1 multiple dose trial, plasma pharmacokinetics (Part 2); settings: for Tmax: median
[2] = human plasma, Regimen I: 120 mg TQS-168 SDD QD 7 days, fasted, geometric mean
[3] = human plasma, Regimen J 90 mg SDD fed, Day 1
[4] = human plasma, Regimen J 90 mg SDD fed, Day 7
[5] = human plasma, Regimen J: 90 mg TQS-168 SDD QD 7 days, fed, geometric mean
[6] = human plasma, Regimen K: 300 mg TQS-168 SDD QD 7 days, fed, geometric mean

CC(C)(C)c1ccc(-c2nc3ccccc3[nH]2)cc1 [TQS-168, 2-(4-tert-butylphenyl)-1H-benzimidazole]
behavioral dysfunction (older mice): alleviate behavioral dysfunction
inflammatory cytokine production in microglia (older mice): inhibit inflammatory cytokine production in microglia
metabolic dysfunction in microglia (older mice): suppress metabolic dysfunction in microglia
systemic inflammation (older mice): suppress systemic inflammation
T1/2 ([1]; Regimen J, 90 mg TQS-168 SDD QD, fed, Day 7, geometric mean): 4.46 h
T1/2 ([1]; Regimen K, 300 mg TQS-168 SDD QD, fed, Day 7, geometric mean): 5.67 h
AUC(0-tau) ([1]; human plasma, Regimen I: 120 mg TQS-168 SDD QD 7 days, fasted, Day 1, geometric mean): 438 ng·h/mL
AUC(0-tau) ([1]; human plasma, Regimen I: 120 mg TQS-168 SDD QD 7 days, fasted, Day 7, geometric mean): 692 ng·h/mL
accumulation ratio based on AUC(0-tau) [1, 2]: 1.58
accumulation ratio based on Cmax [1, 2]: 1.59
maximum individual AUC(0-tau) as share of the AUC(0-24) exposure limit [1, 3]: 10.9%
maximum individual Cmax as share of the Cmax exposure limit [1, 3]: 21.6%
maximum individual AUC(0-tau) as share of the AUC(0-24) exposure limit [1, 4]: 19.5%
maximum individual Cmax as share of the Cmax exposure limit [1, 4]: 30.9%
AUC(0-tau) ([1]; human plasma, Regimen J: 90 mg TQS-168 SDD QD 7 days, fed, Day 1, geometric mean): 223 ng·h/mL
AUC(0-tau) ([1]; human plasma, Regimen J: 90 mg TQS-168 SDD QD 7 days, fed, Day 7, geometric mean): 227 ng·h/mL
accumulation ratio based on AUC(0-tau) [1, 5]: 1.24
accumulation ratio based on Cmax [1, 5]: 1.03
AUC(0-tau) ([1]; human plasma, Regimen K: 300 mg TQS-168 SDD QD 7 days, fed, Day 1, geometric mean): 1210 ng·h/mL
AUC(0-tau) ([1]; human plasma, Regimen K: 300 mg TQS-168 SDD QD 7 days, fed, Day 7, geometric mean): 2010 ng·h/mL
accumulation ratio based on AUC(0-tau) [1, 6]: 1.66
accumulation ratio based on Cmax [1, 6]: 1.74
AUC ([1]; male, human, in vivo, 90 mg, AUC(0-tau), Regimen J, 90 mg TQS-168 SDD QD, fed, Day 1, tau = 24 h, geometric mean): 223 ng·h/mL
AUC ([1]; male, human, in vivo, 90 mg, AUC(0-tau), Regimen J, 90 mg TQS-168 SDD QD, fed, Day 7, tau = 24 h, geometric mean): 227 ng·h/mL
AUC ([1]; male, human, in vivo, 90 mg, AUC(0-tau), human plasma, Regimen J: 90 mg TQS-168 SDD QD 7 days, fed, Day 1, geometric mean): 223 ng·h/mL
AUC ([1]; male, human, in vivo, 90 mg, AUC(0-tau), human plasma, Regimen J: 90 mg TQS-168 SDD QD 7 days, fed, Day 7, geometric mean): 227 ng·h/mL
Cmax ([1]; male, human, in vivo, 90 mg, Cmax, Regimen J, 90 mg TQS-168 SDD QD, fed, Day 1, plasma, geometric mean): 47.4 ng/mL
Cmax ([1]; male, human, in vivo, 90 mg, Cmax, Regimen J, 90 mg TQS-168 SDD QD, fed, Day 7, plasma, geometric mean): 48.8 ng/mL
Cmax ([1]; male, human, in vivo, 90 mg, Cmax, human plasma, Regimen J: 90 mg TQS-168 SDD QD 7 days, fed, Day 1): 190 nM
Cmax ([1]; male, human, in vivo, 90 mg, Cmax, human plasma, Regimen J: 90 mg TQS-168 SDD QD 7 days, fed, Day 1, geometric mean): 47.4 ng/mL
Cmax ([1]; male, human, in vivo, 90 mg, Cmax, human plasma, Regimen J: 90 mg TQS-168 SDD QD 7 days, fed, Day 7): 190 nM
Cmax ([1]; male, human, in vivo, 90 mg, Cmax, human plasma, Regimen J: 90 mg TQS-168 SDD QD 7 days, fed, Day 7, geometric mean): 48.8 ng/mL
Tmax ([1]; male, human, in vivo, 90 mg, Tmax (median), Regimen J, 90 mg TQS-168 SDD QD, fed, Day 7, plasma): 3 h
Tmax ([1]; male, human, in vivo, 90 mg, Tmax, human plasma, Regimen J: 90 mg TQS-168 SDD QD 7 days, fed, Day 1): 3 h
Tmax ([1]; male, human, in vivo, 90 mg, Tmax, human plasma, Regimen J: 90 mg TQS-168 SDD QD 7 days, fed, Day 7): 3 h
AUC ([1]; male, human, in vivo, 90 mg, maximum individual AUC(0-tau), human plasma, Regimen J 90 mg SDD fed, Day 1): 299 ng·h/mL
AUC ([1]; male, human, in vivo, 90 mg, maximum individual AUC(0-tau), human plasma, Regimen J 90 mg SDD fed, Day 7): 535 ng·h/mL
Cmax ([1]; male, human, in vivo, 90 mg, maximum individual Cmax, human plasma, Regimen J 90 mg SDD fed, Day 1): 65.8 ng/mL
Cmax ([1]; male, human, in vivo, 90 mg, maximum individual Cmax, human plasma, Regimen J 90 mg SDD fed, Day 7): 94.1 ng/mL
half-life ([1]; male, human, in vivo, 120 mg): 7.7 h
AUC ([1]; male, human, in vivo, 120 mg, AUC(0-tau), human plasma, Regimen I: 120 mg TQS-168 SDD QD 7 days, fasted, Day 1, geometric mean): 438 ng·h/mL
AUC ([1]; male, human, in vivo, 120 mg, AUC(0-tau), human plasma, Regimen I: 120 mg TQS-168 SDD QD 7 days, fasted, Day 7, geometric mean): 692 ng·h/mL
Cmax ([1]; male, human, in vivo, 120 mg, Cmax, human plasma, Regimen I: 120 mg TQS-168 SDD QD 7 days, fasted, Day 1): 690 nM
Cmax ([1]; male, human, in vivo, 120 mg, Cmax, human plasma, Regimen I: 120 mg TQS-168 SDD QD 7 days, fasted, Day 1, geometric mean): 172 ng/mL
Cmax ([1]; male, human, in vivo, 120 mg, Cmax, human plasma, Regimen I: 120 mg TQS-168 SDD QD 7 days, fasted, Day 7): 1090 nM
Cmax ([1]; male, human, in vivo, 120 mg, Cmax, human plasma, Regimen I: 120 mg TQS-168 SDD QD 7 days, fasted, Day 7, geometric mean): 273 ng/mL
Tmax ([1]; male, human, in vivo, 120 mg, Tmax, human plasma, Regimen I: 120 mg TQS-168 SDD QD 7 days, fasted, Day 1): 1 h
Tmax ([1]; male, human, in vivo, 120 mg, Tmax, human plasma, Regimen I: 120 mg TQS-168 SDD QD 7 days, fasted, Day 7): 0.75 h
AUC ([1]; male, human, in vivo, 300 mg, AUC(0-tau), Regimen K, 300 mg TQS-168 SDD QD, fed, Day 1, tau = 24 h, geometric mean): 1210 ng·h/mL
AUC ([1]; male, human, in vivo, 300 mg, AUC(0-tau), Regimen K, 300 mg TQS-168 SDD QD, fed, Day 7, tau = 24 h, geometric mean): 2010 ng·h/mL
AUC ([1]; male, human, in vivo, 300 mg, AUC(0-tau), human plasma, Regimen K: 300 mg TQS-168 SDD QD 7 days, fed, Day 1, geometric mean): 1210 ng·h/mL
AUC ([1]; male, human, in vivo, 300 mg, AUC(0-tau), human plasma, Regimen K: 300 mg TQS-168 SDD QD 7 days, fed, Day 7, geometric mean): 2010 ng·h/mL
Cmax ([1]; male, human, in vivo, 300 mg, Cmax, Regimen K, 300 mg TQS-168 SDD QD, fed, Day 1, plasma, geometric mean): 229 ng/mL
Cmax ([1]; male, human, in vivo, 300 mg, Cmax, Regimen K, 300 mg TQS-168 SDD QD, fed, Day 7, plasma, geometric mean): 400 ng/mL
Cmax ([1]; male, human, in vivo, 300 mg, Cmax, human plasma, Regimen K: 300 mg TQS-168 SDD QD 7 days, fed, Day 1): 910 nM
Cmax ([1]; male, human, in vivo, 300 mg, Cmax, human plasma, Regimen K: 300 mg TQS-168 SDD QD 7 days, fed, Day 1, geometric mean): 229 ng/mL
Cmax ([1]; male, human, in vivo, 300 mg, Cmax, human plasma, Regimen K: 300 mg TQS-168 SDD QD 7 days, fed, Day 7): 1600 nM
Cmax ([1]; male, human, in vivo, 300 mg, Cmax, human plasma, Regimen K: 300 mg TQS-168 SDD QD 7 days, fed, Day 7, geometric mean): 400 ng/mL
Tmax ([1]; male, human, in vivo, 300 mg, Tmax (median), Regimen K, 300 mg TQS-168 SDD QD, fed, Day 7, plasma): 4 h
Tmax ([1]; male, human, in vivo, 300 mg, Tmax, human plasma, Regimen K: 300 mg TQS-168 SDD QD 7 days, fed, Day 1): 2 h
Tmax ([1]; male, human, in vivo, 300 mg, Tmax, human plasma, Regimen K: 300 mg TQS-168 SDD QD 7 days, fed, Day 7): 4 h
Tmax ([1]; male, human, in vivo, po, 90 mg, Tmax (median), Regimen J, 90 mg TQS-168 SDD powder for oral suspension QD, fed, Day 1, plasma): 3 h
Tmax ([1]; male, human, in vivo, po, 300 mg, Tmax (median), Regimen K, 300 mg TQS-168 SDD powder for oral suspension QD, fed, Day 1, plasma): 2 h
